Here are results for four compounds from publication PMC5378566, “Design, synthesis and evaluation in an LPS rodent model of neuroinflammation of a novel ^18F-labelled PET tracer targeting P2X7” (EJNMMI Research, 2017).

Data set [1] deals with T1, human P2X7 (Homo sapiens, UniProt Q99572).
T1 construct: expressed in transfected cells
T1 sequence (Q99572 1-595): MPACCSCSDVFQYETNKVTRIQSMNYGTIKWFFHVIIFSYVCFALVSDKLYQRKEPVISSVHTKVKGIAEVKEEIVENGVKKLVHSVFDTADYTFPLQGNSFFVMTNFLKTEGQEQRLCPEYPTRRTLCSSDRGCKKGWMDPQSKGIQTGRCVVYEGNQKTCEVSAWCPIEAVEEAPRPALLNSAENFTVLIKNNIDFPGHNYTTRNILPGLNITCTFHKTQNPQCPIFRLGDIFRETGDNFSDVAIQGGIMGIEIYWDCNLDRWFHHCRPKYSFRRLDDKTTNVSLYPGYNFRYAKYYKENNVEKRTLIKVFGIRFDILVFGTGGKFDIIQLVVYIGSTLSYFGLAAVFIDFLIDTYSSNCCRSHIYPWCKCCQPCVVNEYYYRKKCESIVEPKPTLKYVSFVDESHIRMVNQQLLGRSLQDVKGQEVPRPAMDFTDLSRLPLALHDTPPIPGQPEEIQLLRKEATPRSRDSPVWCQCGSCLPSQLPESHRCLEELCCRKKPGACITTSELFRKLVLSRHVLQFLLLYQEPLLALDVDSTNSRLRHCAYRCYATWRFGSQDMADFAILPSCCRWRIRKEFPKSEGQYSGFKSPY
The experiment in a line: Calcium influx (Fura-2/AM) inhibition assay, BzATP-activated. The format is cell-based. The note with it: Human isoform.

The target in data set [2] is T2, mouse P2X7 (Mus musculus, UniProt Q9Z1M0).
T2 sequence (Q9Z1M0 1-595): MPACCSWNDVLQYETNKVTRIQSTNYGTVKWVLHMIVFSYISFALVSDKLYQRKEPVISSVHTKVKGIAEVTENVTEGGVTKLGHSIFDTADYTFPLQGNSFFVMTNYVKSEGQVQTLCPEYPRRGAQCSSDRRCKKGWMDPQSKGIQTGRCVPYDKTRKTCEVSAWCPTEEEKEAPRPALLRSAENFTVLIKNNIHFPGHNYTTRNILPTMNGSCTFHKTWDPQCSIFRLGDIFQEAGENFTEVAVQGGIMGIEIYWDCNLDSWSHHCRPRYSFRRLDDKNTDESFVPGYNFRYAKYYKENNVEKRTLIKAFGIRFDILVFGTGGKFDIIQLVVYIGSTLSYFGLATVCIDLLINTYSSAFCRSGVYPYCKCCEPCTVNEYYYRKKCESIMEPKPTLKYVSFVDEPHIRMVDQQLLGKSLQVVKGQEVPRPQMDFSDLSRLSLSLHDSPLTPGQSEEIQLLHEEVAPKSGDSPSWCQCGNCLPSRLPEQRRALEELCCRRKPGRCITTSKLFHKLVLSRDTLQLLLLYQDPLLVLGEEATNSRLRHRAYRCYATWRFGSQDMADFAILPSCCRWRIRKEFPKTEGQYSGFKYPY
Briefly: Calcium influx (Fura-2/AM) inhibition assay, BzATP-activated, B16 cells. Type of data set: cell-based. The settings on record: Mouse isoform; for pKi: Cheng–Prusoff; for Ki: Cheng–Prusoff from pIC50 assuming competitive inhibition, BzATP 200 μM; for pIC50: P2X7-B16, [BzATP] 200 μM.

The target in data set [3] is T2, mouse P2X7. Also on record: method as in PMID 19558545. The note with it: Mouse isoform, literature value from similar assay format; cited from earlier work.
Data set [4] deals with T3, rat P2X7 (Rattus norvegicus, UniProt Q64663).
T3 construct: expressed in transfected cells
T3 sequence (Q64663 1-595): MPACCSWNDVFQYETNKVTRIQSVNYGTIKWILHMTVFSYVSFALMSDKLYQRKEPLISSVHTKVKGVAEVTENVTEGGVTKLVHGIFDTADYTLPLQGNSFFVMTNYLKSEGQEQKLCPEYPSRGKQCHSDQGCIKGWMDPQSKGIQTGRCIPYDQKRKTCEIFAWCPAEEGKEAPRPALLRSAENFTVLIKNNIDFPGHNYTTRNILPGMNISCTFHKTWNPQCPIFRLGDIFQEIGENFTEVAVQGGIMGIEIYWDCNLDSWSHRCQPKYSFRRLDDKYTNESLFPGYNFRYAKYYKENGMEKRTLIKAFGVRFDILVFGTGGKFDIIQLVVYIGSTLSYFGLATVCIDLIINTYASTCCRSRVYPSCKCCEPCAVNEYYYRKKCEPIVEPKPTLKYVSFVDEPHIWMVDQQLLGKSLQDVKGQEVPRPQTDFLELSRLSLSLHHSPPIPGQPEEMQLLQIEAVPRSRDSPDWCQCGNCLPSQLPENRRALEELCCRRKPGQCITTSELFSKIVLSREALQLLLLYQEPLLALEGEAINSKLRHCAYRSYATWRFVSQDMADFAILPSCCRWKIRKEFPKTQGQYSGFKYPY
The experiment in a line: Calcium influx (Fura-2/AM) inhibition assay, BzATP-activated. Type of data set: cell-based. The note with it: Rat isoform.

Data set [5] is described as follows: Stability test in 0.05% DMSO by radio/UV-HPLC. The note with it: 37 °C, 2 h. The format is physicochemical. The procedure:
The reaction vessel was heated at 160 °C for 15 min, cooled to 50 °C and the solvent was concentrated at 50 °C under a stream of nitrogen for 7–10 min. Next, the crude mixture was diluted in 2 mL water ensuring <15% acetonitrile was present and injected in an HPLC semi-prep C18 column to provide isolation of the pure product in >99% RCP and >300 GBq/μmol molar radioactivity. The product was diluted to 30–50 mL in water and passed through a light C18 Short Sep-Pak SPE cartridge (WAT023501) for concentration in 200–500 μL ethanol. The resulting product was obtained in high purity and 4.0% overall RCY in 3 h and 30 min from start of synthesis. Purity tests were performed with HPLC method B (Table 1).
Supp. […] UV_A: UV chromatogram; ChA: Channel A (Radiochromatogram); Cps: counts per second.

The next data set has as its system Sprague–Dawley rats. Briefly: PET/CT imaging and biodistribution in LPS-treated and control rats. Type of data set: in vivo, rat. The procedure: Male Sprague–Dawley rats of 240–270 g were bought from Charles River Laboratories International, Inc., and used within 90 days. The animals were housed with a week of acclimatisation before procedures were done under pathogen-free conditions in a temperature- and humidity-controlled environment and given access to food and water ad libitum. All experiments were carried out in the Rayne Institute, St. Thomas’ Hospital, King’s College London, between 2015 and 2016 and according to the Animals Act 1986 and with the approval of the King’s College research ethics committee.
Twenty-four hours prior to scanning, all rats were pre-treated by an intraperitoneal injection of 0.5 mg/kg LPS from Escherichia coli (0111:B4 L2630, Sigma Aldrich) at 0.5 mg/mL or with 1 mL/kg sterile saline solution and weighed before the start of the PET imaging procedure. Then, the saline-dissolved reformulated radiotracer was injected under isoflurane anaesthesia in 0.2–5 MBq, corresponding to an administered dose of 0.5–16 ng/kg, and >300 GBq/μmol molar radioactivity via tail vein cannulation, followed by a 0.15 mL saline flush. Details on anaesthesia and PET/CT acquisition and analysis are reported in Additional file 1. Immediately after imaging, the animals were culled by terminal anaesthesia and cervical dislocation and dissected. Organs and body fluids were collected for gamma counting (LKB Wallac 1282) and biodistribution analysis.
Data are expressed as mean ± standard error mean (SEM) from three independent replicates, unless otherwise indicated. Statistical analysis of the %ID/g variation in the PET scans and biodistributions were performed with GraphPad Prism 5.0 (San Diego, USA) as a parametric two-way ANOVA test with Bonferroni post-test, while the mean longitudinal percentage injected dose per gram (%ID/g) and the post-LPS treatment weight variation were analysed with a Student’s t test. The asterisk indicates P < 0.01; **P < 0.005; ***P < 0.001. Where unspecified, no significance was found.
PET/CT scans were acquired with Nuclide^TM within the energy window of 400-600 keV, coincidence detection ratio 1-5 and voxel resolution of 0.30 x 0.30 x 0.30 mm^3. CT scanning was performed immediately before or after the PET scans with X-ray energy of 45 KVp, 360 projection and 0.25 x 0.25 x 0.21 mm^3 voxel size. The datasets were resolved by dynamic fine reconstructions with coincidence detection ratio 1-5 and decay correction to the time of injection. Binning was performed in incremental time units of 5 to 30 min size. All reconstructed datasets were analysed with VivoQuant 1.21 (InviCRO, LLC, Boston, USA). ROI activity quantification was corrected for background noise. Uptake was expressed as percent injected dose per gram of tissue (%ID/g), as calculated with reference to the injected activity dose at the time of injection and the ROI size in mm^3. The blood ROI was sampled from the coronary artery. All data are presented as mean ± SEM unless otherwise stated.
Immediately after imaging, the animals were culled by terminal anaesthesia and cervical dislocation. The animals were dissected and organs and body fluids were collected for gamma counting (LKB Wallac 1282) and weighed. An ^18F counts-to-becquerel standard curve was made so as to enable conversion between the two units. The radiotracer uptake in each organ was expressed as %ID/g, where %ID was the percent ratio of the measured organ radioactivity to the total administered dose. The latter was defined as the MBq injected to the animals, decay corrected to the start of counting.

The target in data set [6] is T1, human P2X7. On the set-up: method as in PMID 11181928. The note with it: YoPro dye uptake, P2X7-HEK293; cited from earlier work.
In data set [7] the target is T3, rat P2X7. On the set-up: method as in PMID 11181928. The note with it: YoPro dye uptake, P2X7-HEK293; cited from earlier work.
Data set [8] has as its target T2, mouse P2X7. On the set-up: method as in PMID 11181928. The settings on record: YoPro dye uptake, P2X7-HEK293; cited from earlier work.

What is called Ki is the equilibrium dissociation constant of an inhibitor or competing ligand from its target. Usually IC50 stands for the midpoint of a concentration-inhibition curve. One may read the pKi as the negative decadic logarithm of the Ki, by convention in mol/L. What is called pIC50 is the negative decadic logarithm of the IC50, by convention in mol/L. As to `COc1ccc(CC(=O)NC(NC(=NC#N)Nc2cccc3ncccc23)C(C)(C)C)cc1OC` (stereo not shown) [A-740003, N-(1-{[(Cyanoimino)(5-quinolinylamino)methyl]amino}-2,2-dimethylpropyl)-2-(3,4-dimethoxyphenyl)acetamide, reference compound], at human P2X7 [1] (Cheng–Prusoff), the inhibitory constant (Ki) was 0.105 nM. In addition, on human P2X7 [1] (P2X7-HEK293, [BzATP] 100 μM), the IC50 is 66.1 nM. Besides, on mouse P2X7 [2], the pKi came to 7.01, the Ki amounted to 97.2 nM and the pIC50 came out at 5.97. Further, the “Lit. pIC50” value on mouse P2X7 [3] was 6.57 [34].
Regarding `N#CN=C(NCc1ccc(F)cc1)Nc1cccc2ncccc12` [EFB, 2-cyano-1-(4-fluorobenzyl)-3-(quinolin-5-yl)guanidine], at rat P2X7 [4] (Cheng–Prusoff from pIC50 assuming competitive inhibition, BzATP 100 μM), the Ki amounted to 36.1 nM. Moreover, the IC50 at rat P2X7 [4] (P2X7-HEK293, [BzATP] 100 μM) is 7240 nM. Also, on mouse P2X7 [2], the pKi is given as 6.26, the Ki amounted to 547 nM and the pIC50 worked out at 5.22.
With `N#C/N=C(/NCc1ccc([18F])cc1)Nc1cccc2ncccc12` [[^18F]EFB, 2-cyano-1-(4-[^18F]fluorobenzyl)-3-(quinolin-5-yl)guanidine], the Stability entry in data set [5] is listed as “no radioactive by-product formation”. Besides, in the data set on Sprague–Dawley rats (90 min biodistribution), the “blood concentration of the tracer, LPS vs control” value was “substantially unvaried” and the “tracer uptake in upper digestive organs (stomach, pancreas), LPS vs control” value is recorded as “increased, albeit non-significant”. Further, in the data set on Sprague–Dawley rats (PET, rats, i.v.), the “CNS uptake, spinal cord” value is 0.05–0.1 %ID/g; the “CNS uptake, whole brain, cortex, olfactory bulb, cerebellum and basal ganglia” value is 0.02–0.07 %ID/g. For the same compound, the “blood concentration (longitudinal uptake profile)” value in the data set with Sprague–Dawley rats (PET, rats, i.v., blood ROI) is given as 0.05–0.1 %ID/g. Besides, in the data set with Sprague–Dawley rats (control and 0.5 mg/kg LPS-pre-treated rats), the “brain uptake (visual PET image assessment)” value is “low brain uptake”. Besides, the “removal of the radioactivity (excretion route)” value in the data set on Sprague–Dawley rats (rats) is on record as “predominantly via the urinary route”.
For orientation: pEC50 means the negative decadic logarithm of the EC50, by convention in mol/L. With “2′(3′)-O-(4-Benzoylbenzoyl)adenosine 5′-triphosphate triethylammonium salt [BzATP]”, the pEC50 is reported as 6.8 ± 0.14 on human P2X7 [6], 6.3 ± 0.13 on rat P2X7 [7] and 4.7 ± 0.07 on mouse P2X7 [8].
